Test results taken from US12097184B2, “Formulations of psilocin that have enhanced stability” (priority 2021, dated 2024).
Marks after values point to notes of the source that are not given here.

Legend:
[1] = Salt screen using solutions in ethanol, appearance/colour on storage; details: light-protected; for Results at 18 h: ethanol solution, storage overnight at RT, Ar; for Result at 6 days: solvent removed, stored at RT under Ar, appearance after addition of EtOH
Exposure of HBr1 to AAC = format: physicochemical; details: AAC for two days
Source text: HBr1 was unstable upon exposure to AAC for two days and became deliquescent.

[2] = Dynamic vapor sorption/desorption (DVS) analysis; format: physicochemical
Experimental: The weight versus time and percent weight change versus percent relative humidity (RH) curves from the DVS analysis of psilocin tartrate lot 16782-15C is presented in FIGS. 13 and 14, respectively.
DVS analysis was carried out using a TA Instruments Q5000 Dynamic Vapor Sorption analyzer. The instrument was calibrated with standard weights and a sodium bromide standard for humidity. Approximately 12 mg of the powder sample was loaded into a metal-coated quartz pan for analysis. The sample was analyzed at 25° C. after being equilibrated to […] in 10% RH steps from 5 to 95% RH (adsorption cycle) and from 95 to 5% RH (desorption cycle). The movement from one step to the next occurred either after satisfying the equilibrium criterion of 0.01% weight change in 5 minutes or, if the equilibrium criterion was not met, after 90 minutes. The percent weight change values were calculated using Microsoft Excel® 2016.

[3] = Analytical characterization of a psilocin tartrate sample (solid state); format: physicochemical; details: OM, XRPD, DSC, TGA, DVS
Source text: One sample of psilocin tartrate (lot 16782-15C) was submitted for optical microscopy (OM), X-ray powder diffraction (XRPD), differential scanning calorimetry (DSC), thermogravimetric analysis (TGA), dynamic vapor sorption/desorption (DVS), and ^1H NMR spectroscopy.

[4] = HPLC solution stability and stress conditions, free base versus tartrate salt
[5] = after IV administration of psilocybin; cited from earlier work
intestinal epithelia = details: cited from earlier work
[6] = PK evaluation of psilocin and psilocybin after IV and PO administration in rats; format: in vivo, CD rats; details: for PK values, including Cmax and AUC and Cl: IV administration; for PK values, including Cmax and AUC and Cl / PK values, including tmax, t1/2, AUC, and bioavailability: psilocin versus psilocybin; for PK values, including tmax, t1/2, AUC, and bioavailability: PO administration
Experimental: PK Evaluation of Psilocin and Psilocybin after IV and PO Administration in Rats
(§1) The study was conducted in male/female CD rats. Test articles were formulated fresh in PBS. Psilocin and Psilocybin were administered IV and PO. Plasma samples were analyzed for psilocin and psilocybin (group 2).
(§2) FIGS. 2A-2C show PK characteristics of psilocin and psilocybin after IV dosing. FIGS. 3A-3B show PK characteristics of psilocin and psilocybin after PO dosing. FIGS. 4A-4B show psilocin and psilocybin after IV and PO dose.

[7] = cited from earlier work
[8] = protected from light, over 14 days; cited from earlier work
[9] = Analytical characterization of dosing solutions used in the PK study; format: physicochemical; details: after 2 hours on the bench at room temperature, PBS, depending on the concentration
Experimental: as §1, §2
After IV administration, psilocybin is detectable in plasma for 15 minutes. PO administration of psilocin and psilocybin results in similar PK values, including tmax, t1/2, AUC, and bioavailability. […] Low stability of psilocin in aqueous solutions could be a contributing factor to observed differences. […] Stabilization of psilocin provides viable, stable formulations and lower variability of dosing solutions, resulting in a better PK, such as compared to psilocybin.

Q: With `O=C(O)CCC(=O)O` [Succinic] as the molecule, how does the “Results at 18 h” value [1] read?
A: F ^c

Q: What about the “Result at 6 days” value [1] of the same molecule?
A: ↑C

Q: For L-Tartaric, which “Results at 18 h” value [1] is on record?
A: 0 ^d

Q: Which “stability upon exposure to AAC” value (Exposure of HBr1 to AAC) does the source give for `Br.CN(C)CCc1c[nH]c2cccc(O)c12` [HBr1] here?
A: unstable

Q: Which “Result at 6 days” value [1] does the source give for Adipic here?
A: ↑C

Q: Which results are given for psilocin tartrate?
A: hygroscopicity [2]: moderately hygroscopic; wt. loss upon equilibration at 5% RH ([2]; 25° C.): 0.12% wt. loss upon equilibration at 5% RH; wt. gain from 5 to 95% RH ([2]; 25° C., adsorption cycle): 4.64% wt. gain from 5 to 95% RH; wt. loss from 95 to 5% RH ([2]; 25° C., desorption cycle): 4.67% wt. loss from 95 to 5% RH; solid-state stability [3]: stable crystalline solid; stability in solution compared to the free base ([4]; HPLC, FIG. 21): improved stability

Q: What does the source list for `O=C1O[C@H]([C@@H](O)CO)C(O)=C1O` [Ascorbic]?
A: Results at 18 h [1]: 0; Result at 6 days [1]: C + solid

Q: With `O=C(O)CC(=O)O` [Malonic] as the molecule, how does the “Results at 18 h” value [1] read?
A: F ^c

Q: What about the “Result at 6 days” value [1] of the same molecule?
A: ↑C

Q: Which “Results at 18 h” value [1] does the source give for `O=C(O)c1ccccc1O` [Salicylic] here?
A: 0

Q: What about the “Result at 6 days” value [1] of the same molecule?
A: ↑C

Q: For Oxalic, which “Results at 18 h” value [1] is on record?
A: 0

Q: What does the source list for `CN(C)CCc1c[nH]c2cccc(OP(=O)(O)O)c12` [psilocybin, 4-phosphoryloxy-N, N-dimethyltryptamine, reference compound]?
A: inter-individual variability of psilocin concentrations [5]: over 3 fold; permeability (intestinal epithelia): not permeable; PK values, including Cmax and AUC and Cl [6]: almost identical; PK values, including tmax, t1/2, AUC, and bioavailability [6]: similar; time psilocybin is detectable in plasma ([6]; after IV administration): 15 min

Q: For Fumaric, which “Results at 18 h” value [1] is on record?
A: F ^c

Q: Which “Results at 18 h” value [1] does the source give for Mandelic here?
A: 0

Q: Which results are given for `CN(C)CCc1c[nH]c2cccc(O[C@@H]3O[C@H](C(=O)O)[C@@H](O)[C@H](O)[C@H]3O)c12` [psilocin glucuronide]?
A: short-term stability compared with psilocin ([7]; one week, whole blood at room temperature and deep frozen samples): better than that of psilocin; long-term stability compared with psilocin ([7]; six months, deep frozen serum and urine samples): greater long-term stability

Q: With `CN(C)CCc1c[nH]c2cccc(O)c12` [psilocin, 4-hydroxy-N,N-dimethyltryptamine] as the molecule, how does the peak loss [8] read?
A: 50%

Q: What about the “PK values, including Cmax and AUC and Cl” value [6] of the same molecule?
A: almost identical

Q: And the “PK values, including tmax, t1/2, AUC, and bioavailability” value [6]?
A: similar

Q: What about the Cmax ([6]; both sexes, CD, rat, PO administration of psilocin, plasma psilocin, read-out: Measured Cmax) of the same molecule?
A: 0.153 µg/mL

Q: What about the “degradation of dosing solutions” value [9] of the same molecule?
A: 30%-70%

Q: And the psilocin lost ([7]; biological samples with addition of 25 mM ascorbic acid)?
A: greater than 5%

Q: And the “stability under a variety of stress conditions” value ([4]; FIG. 20)?
A: limited stability

Q: With Maleic as the molecule, how does the “Results at 18 h” value [1] read?
A: 0

Q: And the “Result at 6 days” value [1]?
A: ↑C
